Values joined by “and” are separate entries in the source; they are usually repeats but may differ in a detail not shown here. Equal entries are not always repeated. Where two headings read alike, the source gives them in different places.
Columns and labels:
hAChE [1] = target: T1, hAChE (Homo sapiens, UniProt P22303); experiment: biochemical; assay type: biochemical
T1 construct: purchased Sigma Aldrich (Milan, Italy)

human recombinant MAO-A = target: T2, human recombinant MAO-A (Homo sapiens, UniProt P21397); experiment: biochemical; details: for inhibition at 10 µM: read-out: MAO-A % inhibition at 10 μM, human MAO-A, values in parentheses; for IC50: MAO-A IC50, human MAO-A, mean ± SD of three independent measurements
T2 construct: purchased Sigma Aldrich (Milan, Italy); host or cells: baculovirus-infected insect cells
T2 sequence (P21397 1-527): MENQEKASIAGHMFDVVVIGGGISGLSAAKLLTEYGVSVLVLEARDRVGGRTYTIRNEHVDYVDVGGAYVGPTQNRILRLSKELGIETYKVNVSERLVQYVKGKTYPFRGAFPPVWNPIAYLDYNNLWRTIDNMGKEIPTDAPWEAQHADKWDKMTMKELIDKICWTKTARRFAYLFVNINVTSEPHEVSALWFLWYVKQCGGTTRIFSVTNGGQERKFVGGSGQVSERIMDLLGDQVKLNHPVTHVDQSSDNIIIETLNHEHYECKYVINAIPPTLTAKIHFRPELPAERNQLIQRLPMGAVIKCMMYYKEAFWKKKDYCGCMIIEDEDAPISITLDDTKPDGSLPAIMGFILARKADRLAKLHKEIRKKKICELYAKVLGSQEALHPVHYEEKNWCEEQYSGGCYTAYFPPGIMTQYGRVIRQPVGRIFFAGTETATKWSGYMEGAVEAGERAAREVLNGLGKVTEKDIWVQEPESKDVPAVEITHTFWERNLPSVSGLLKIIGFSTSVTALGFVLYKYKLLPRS

human recombinant MAO B = target: T3, human recombinant MAO B (Homo sapiens, UniProt P27338); experiment: biochemical; details: mean ± SD of three independent measurements
T3 construct: purchased Sigma Aldrich (Milan, Italy); host or cells: baculovirus-infected insect cells
T3 sequence (P27338 1-520): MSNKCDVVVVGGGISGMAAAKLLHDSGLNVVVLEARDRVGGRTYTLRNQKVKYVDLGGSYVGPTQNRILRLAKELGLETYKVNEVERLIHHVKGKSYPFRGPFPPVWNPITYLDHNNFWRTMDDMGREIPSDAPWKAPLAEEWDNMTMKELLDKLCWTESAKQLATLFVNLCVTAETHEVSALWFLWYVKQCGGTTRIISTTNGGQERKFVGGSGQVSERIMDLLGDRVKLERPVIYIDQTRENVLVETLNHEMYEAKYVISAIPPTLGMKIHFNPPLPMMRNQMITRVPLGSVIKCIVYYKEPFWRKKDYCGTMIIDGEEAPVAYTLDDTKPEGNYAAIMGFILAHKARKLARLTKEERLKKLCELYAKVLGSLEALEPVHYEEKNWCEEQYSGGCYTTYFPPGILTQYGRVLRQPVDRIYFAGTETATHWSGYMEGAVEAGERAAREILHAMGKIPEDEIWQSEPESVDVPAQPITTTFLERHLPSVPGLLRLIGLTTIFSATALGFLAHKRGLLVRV
Method: In MAOs’ inhibition assays, each test compound, at 10 μM concentration, was preincubated for 20 min at 37 °C with 50 μM kynuramine as the substrate in 0.1 M phosphate-buffered solution (PBS) pH 8.0 made 0.39 osmolar with KCl. After the addition of human recombinant MAO-A (250 U/mg) or MAO B (59 U/mg) and a further 30 min of incubation, NaOH was added, and the fluorescence read at 310/400 nm excitation/emission wavelength. […] For the kinetic study on the inhibition mechanism of MAO B, three diverse scalar concentrations of the inhibitor and seven concentrations of kynuramine were used [40, 61, 62].

BChE from human serum = target: T4, BChE from human serum (Homo sapiens, UniProt P06276); experiment: biochemical; details: for inhibition at 10 µM: read-out: BChE % inhibition at 10 μM, 10 μM, values in parentheses, n.a. = not active; for IC50: mean ± SD of three independent measurements
T4 construct: BChE from human serum; purchased Sigma Aldrich (Milan, Italy); host or cells: human serum
T4 sequence (P06276 29-602): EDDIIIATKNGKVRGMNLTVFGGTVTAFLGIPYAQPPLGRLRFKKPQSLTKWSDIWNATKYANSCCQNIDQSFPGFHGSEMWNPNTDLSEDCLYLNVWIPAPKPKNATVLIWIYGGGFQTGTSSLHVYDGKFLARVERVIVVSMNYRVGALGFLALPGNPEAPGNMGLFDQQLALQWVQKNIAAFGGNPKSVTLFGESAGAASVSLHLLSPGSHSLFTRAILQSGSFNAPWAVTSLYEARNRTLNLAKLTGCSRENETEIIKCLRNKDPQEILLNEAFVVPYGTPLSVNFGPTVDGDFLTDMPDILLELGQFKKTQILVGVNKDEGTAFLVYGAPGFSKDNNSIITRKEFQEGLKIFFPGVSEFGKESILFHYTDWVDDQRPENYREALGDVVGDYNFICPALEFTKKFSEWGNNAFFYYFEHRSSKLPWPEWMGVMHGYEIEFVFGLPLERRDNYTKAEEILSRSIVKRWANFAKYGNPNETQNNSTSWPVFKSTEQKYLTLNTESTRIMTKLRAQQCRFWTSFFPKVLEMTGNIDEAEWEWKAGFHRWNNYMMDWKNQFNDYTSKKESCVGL
Method: Human isoforms of ChEs (human recombinant AChE and BChE from human serum) and MAOs (from baculovirus-infected insect cells), purchased from Sigma Aldrich (Milan, Italy), were used for inhibition assays. Experiments were performed in 96-well plates (Greiner Bio-One, Kremsmünster, Austria) on the Infinite M1000 Pro plate reader (Tecan, Cernusco s.N., Italy), using already published protocols [46, 58, 59, 60].

hAChE [2] = target: T1, hAChE; set-up: method as in PMID 35923722; details: read-out: AChE IC50; previously reported values; ref [40]; listed as E-1; cited from earlier work
[3] = set-up: method as in PMID 35923722; details: ref [40]; cited from earlier work
[4] = UV-B photoisomerization to the photostationary state (1H NMR); assay type: physicochemical; details: 10 mM in methanol, two 15 W UV-B lamps, 24 °C; almost completed
Method: Using ^1H NMR spectroscopy, the formation of the Z diastereoisomer can be determined with confidence. Specifically, as previously done for 1a, methanol-d4 solutions of compounds 1b–e at a concentration of about 10 mM were irradiated with UV-B light in a Pyrex NMR tube and observed until the photostationary state (PSS) was reached.
The same procedure was followed for compounds 1f–h. However, due to the poor solubility in methanol at the concentrations required for ^1H NMR analysis, 1f–h was irradiated and monitored in an acetone-d6 solution. The diastereomeric E/Z ratio of the obtained PSS-1b–h was determined by calculating the area of the easily distinguishable signals assigned to the E and Z isomers (Figure 4).
The solution was irradiated with UV-B light until reaching the PSSUV-B (almost completed in 50–80 min). Subsequently, the PSSUV-B solution was irradiated under the same conditions with UV-C light generated using two lamps (15 Watt GT15T8 Hg UV-C tube), observing the photoconversion of the cis isomer into the trans isomer without the appearance of photodegradation.

hAChE [5] = target: T1, hAChE; experiment: AChE inhibition kinetics (Lineweaver–Burk, replot of slopes); assay type: biochemical
[6] = set-up: method as in PMID 35923722; details: Z isomer, thermal reversion; ref [40]; cited from earlier work
[7] = human AChE, mean ± SD of three independent measurements, read-out: AChE IC50

T1 sequence (P22303 32-614): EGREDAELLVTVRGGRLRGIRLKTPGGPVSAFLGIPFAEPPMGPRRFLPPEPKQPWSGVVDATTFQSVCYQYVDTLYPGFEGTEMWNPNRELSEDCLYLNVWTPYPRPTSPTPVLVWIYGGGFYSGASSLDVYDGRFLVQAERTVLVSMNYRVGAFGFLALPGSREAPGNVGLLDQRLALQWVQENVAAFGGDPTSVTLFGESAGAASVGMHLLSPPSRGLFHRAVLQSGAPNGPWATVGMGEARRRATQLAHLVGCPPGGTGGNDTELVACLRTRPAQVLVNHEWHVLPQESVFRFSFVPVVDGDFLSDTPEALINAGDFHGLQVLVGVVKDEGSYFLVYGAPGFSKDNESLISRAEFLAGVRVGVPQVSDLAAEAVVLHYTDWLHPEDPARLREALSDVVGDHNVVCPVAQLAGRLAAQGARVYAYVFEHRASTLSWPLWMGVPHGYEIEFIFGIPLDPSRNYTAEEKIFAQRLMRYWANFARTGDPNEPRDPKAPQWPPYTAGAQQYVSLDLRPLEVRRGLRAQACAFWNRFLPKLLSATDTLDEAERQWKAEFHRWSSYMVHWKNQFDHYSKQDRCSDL

Compound | inhibition at 10 µM (human recombinant MAO-A) [%] | IC50 (human recombinant MAO B) [nM] | inhibition at 10 µM (BChE from human serum) [%] | IC50 (BChE from human serum) [nM] | IC50 (hAChE [1]; [7]) [nM] | other results
CCN(CC)Cc1ccc(C=C2Cc3cc(OC)ccc3C2=O)cc1 (mixture of isomers) [E/Z-1a] | 45 | 1590 ± 40 | 28 | – | – | IC50 (hAChE [1]): 780 ± 13 nM
CCN(CC)Cc1ccc(/C=C2\Cc3cc(OC)ccc3C2=O)cc1 [Compound E-1a, 2-(4-((diethylamino)methyl)benzylidene)-5-methoxy-2,3-dihydro-1H-inden-1-one] | 33 | 260 ± 12 | – | 10000 ± 150 | – | IC50 (hAChE [2]): 110 nM; IC50 (hAChE [1]): 105 ± 5 nM; Z-isomer in the photostationary state (PSS) after UV-B light [3]: 75%
COc1ccc2c(c1)C/C(=C\c1ccc(CN(C)C)cc1)C2=O [Compound E-1b, (E)-2-(4-((Dimethylamino)methyl)benzylidene)-5-methoxy-2,3-dihydro-1H-inden-1-one] | 33 | 686 ± 59 | – | – | 155 ± 10 | –
CCCN(CCC)Cc1ccc(/C=C2\Cc3cc(OC)ccc3C2=O)cc1 [Compound E-1c, (E)-2-(4-((Dipropylamino)methyl)benzylidene)-5-methoxy-2,3-dihydro-1H-inden-1-one] | 15 | 479 ± 81 | 28 | – | 174 ± 17 | time to reach PSS under UV-B irradiation [4]: 50 to 80 min
CCCCN(CCCC)Cc1ccc(/C=C2\Cc3cc(OC)ccc3C2=O)cc1 [Compound E-1d, (E)-2-(4-((Dibutylamino)methyl)benzylidene)-5-methoxy-2,3-dihydro-1H-inden-1-one] | 12 | 338 ± 36 | 28 | – | 990 ± 50 | –
CCCCN(C)Cc1ccc(/C=C2\Cc3cc(OC)ccc3C2=O)cc1 [Compound E-1e, (E)-2-(4-((Butyl(methyl)amino)methyl)benzylidene)-5-methoxy-2,3-dihydro-1H-inden-1-one] | 20 | 178 ± 86 | – | 5000 ± 450 | 102 ± 19 | –
COc1ccc2c(c1)C/C(=C\c1ccc(CN(C(C)C)C(C)C)cc1)C2=O [Compound E-1f, (E)-2-(4-((Diisopropylamino)methyl)benzylidene)-5-methoxy-2,3-dihydro-1H-inden-1-one] | 22 | – | – | 10000 ± 850 | 261 ± 14 | –
COc1ccc2c(c1)C/C(=C\c1ccc(CN(C)Cc3ccccc3)cc1)C2=O [Compound E-1g, (E)-2-(4-((Benzyl(methyl)amino)methyl)benzylidene)-5-methoxy-2,3-dihydro-1H-inden-1-one] | 39 | 292 ± 60 | – | 9900 ± 110 | 115 ± 4 | –
CCN(Cc1ccccc1)Cc1ccc(/C=C2\Cc3cc(OC)ccc3C2=O)cc1 [Compound E-1h, (E)-2-(4-((Benzyl(ethyl)amino)methyl)benzylidene)-5-methoxy-2,3-dihydro-1H-inden-1-one] | 13 | 355 ± 134 | – | 7000 ± 10 | 39 ± 1 | decrease of AChE inhibitory potency on photoisomerization to Z (75% Z in PSS) (hAChE [1]; PSS mixture versus pure E isomer): about 30%; mechanism of AChE inhibition (hAChE [5]; Lineweaver–Burk, both Vmax and Km changed): mixed-type inhibition; Ki (hAChE [5]; replot of slopes versus [I], x-axis intercept, hAChE 0.2 U/mL, acetylthiocholine iodide 50–300 μM): 100 nM
CCN(CC)Cc1ccc(/C=C2/Cc3cc(OC)ccc3C2=O)cc1 [Compound Z-1a] | – | – | – | – | – | half-life in MeOH at room temperature [6]: 47 days
COc1ccc2c(c1)CC(=Cc1ccc(CN(C)C)cc1)C2=O [E/Z-1b] | 32 | 839 ± 123 | 25 | – | 915 ± 138 | –
CCCN(CCC)Cc1ccc(C=C2Cc3cc(OC)ccc3C2=O)cc1 [E/Z-1c] | – | 743 ± 48 | 20 | – | 295 ± 45 | IC50 (human recombinant MAO-A): ~3000 nM and 2980 nM
CCCCN(CCCC)Cc1ccc(C=C2Cc3cc(OC)ccc3C2=O)cc1 [E/Z-1d] | 37 | 382 ± 6 | – | – | 2280 ± 210 | –
CCCCN(C)Cc1ccc(C=C2Cc3cc(OC)ccc3C2=O)cc1 [E/Z-1e] | 25 | 651 ± 61 | – | – | 1360 ± 60 | –
COc1ccc2c(c1)CC(=Cc1ccc(CN(C(C)C)C(C)C)cc1)C2=O [E/Z-1f] | – | 241 ± 26 | 20 | – | 1410 ± 90 | IC50 (human recombinant MAO-A): ~3000 nM and 3190 nM
COc1ccc2c(c1)CC(=Cc1ccc(CN(C)Cc3ccccc3)cc1)C2=O [E/Z-1g] | 49 | 354 ± 70 | 40 | – | 135 ± 62 | –
CCN(Cc1ccccc1)Cc1ccc(C=C2Cc3cc(OC)ccc3C2=O)cc1 [E/Z-1h] | 39 | 358 ± 8 | – | 10000 ± 320 | 53 ± 6 | –

— paper PMC10421270, “Investigation on Novel E/Z 2-Benzylideneindan-1-One-Based Photoswitches with AChE and MAO-B Dual Inhibitory Activity” (Molecules, 2023)
